The values below are quoted from earlier work in paper PMC2805559 (Journal of medicinal chemistry, 2009).

The test system of series [1] is Hsp90-IP6K2 interaction. The following applies: ref [16].
The test system of series [2] is tumor. The following applies: ref [1].

For the compound `C=CCNC1=C2C[C@@H](C)C[C@H](OC)[C@H](O)[C@@H](C)/C=C(\C)[C@H](OC(N)=O)[C@@H](OC)/C=C\C=C(/C)C(=O)NC(=CC1=O)C2=O` [17-AAG, 17-allylamino, 17-demethoxygeldanamycin], in series [1], the “effect on binding of IP6K2 to Hsp90” value is “does not affect the binding”. For Sansalvamide A, in series [2], the anti-tumor activity entry is recorded as “micromolar potency”.
